Here are results for one compound from patent publication US20180318241A1, “TREATMENT OF NERVOUS SYSTEM DISORDERS USING THYROID HORMONE NEUTRAL DOSES OF RXR AGONISTS” (Io Therapeutics, Inc., priority 2015, published 2018).

Entries after “also recorded” stand apart in the source; their conditions may differ.

For one series, the target named is T1, RXRγ (Homo sapiens, UniProt P48443).
T1 construct: an expression construct including a full length RXRα, RXRβ, or RXRγ; expressed in transfected cells; host or cells: CV-1
T1 sequence (P48443 1-463): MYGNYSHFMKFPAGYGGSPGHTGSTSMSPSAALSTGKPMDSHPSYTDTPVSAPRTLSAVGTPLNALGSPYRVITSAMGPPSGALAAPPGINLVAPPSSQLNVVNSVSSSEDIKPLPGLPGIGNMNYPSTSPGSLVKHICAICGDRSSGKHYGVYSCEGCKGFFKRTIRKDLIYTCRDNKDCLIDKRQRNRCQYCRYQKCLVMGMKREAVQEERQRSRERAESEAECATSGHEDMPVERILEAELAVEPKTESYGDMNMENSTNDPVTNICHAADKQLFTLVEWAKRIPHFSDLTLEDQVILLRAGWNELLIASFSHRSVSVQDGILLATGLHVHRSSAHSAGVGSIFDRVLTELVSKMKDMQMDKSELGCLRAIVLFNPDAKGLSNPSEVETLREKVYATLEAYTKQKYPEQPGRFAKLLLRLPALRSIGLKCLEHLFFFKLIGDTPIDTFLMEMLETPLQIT
Briefly: RXR homodimer transactivation assay (rCRBPII/RXRE-tk-Luc) in CV-1 cells. It is filed as cell-based.

A further series has as its target RARα (Homo sapiens, UniProt P10276). The settings on record: RARs (α, β, γ), at ≥1 μM. On the procedure:
To determine whether a RXR agonist can mediate its effects via RXRα receptor homodimers, RXRβ receptor homodimers, RXRγ receptor homodimers, or any combination thereof, or the corresponding RAR/RXR heterodimers, receptor-mediated transactivation assays were performed. For transactivation assays assessing RXR homodimer signaling, CV-1 cells were transfected with 1) an expression construct including a full length RXRα, RXRβ, or RXRγ; and 2) a rCRBPII/RXRE-tk-Luc reporter construct that included RXR homodimer-specific RXRE/DR1 responsive element linked to a luciferase gene. For transactivation assays assessing RAR/RXR heterodimer signaling, CV-1 cells were transfected with 1) an expression construct comprising a fusion protein including an estrogen receptor (ER) DNA binding domain linked to the ligand binding domain of RARα, RARβ, or RARγ and 2) a ERE-tk-Luc reporter construct that included an estrogen receptor responsive element linked to a luciferase gene. […] Data are mean values±SE from five independent experiments.

The subject of the next series is EAE in B6 mice. Briefly: EAE dose titration in B6 mice with spleen and CNS analysis. The series is classed as in vivo. The settings on record: 200 μg/day vs vehicle. On the procedure: A dose titration experiment was also conducted in EAE mice. EAE was induced in 28 B6 mice with MOG/CFA and PT as above. Mice were scored on day 7 as indicated above and divided into groups by score so means are as equal as possible.
At the completion of the experiment, the vehicle control and 200 μg/day groups were euthanized and spleen and CNS samples obtained.

The subject of the next series is EAE in SJL mice. Briefly: EAE in SJL mice. The series is classed as in vivo. To be noted: 50 μg i.p. every other day, day 8 to day 14. How it is done:
To determine whether a RXR agonist can attenuate multiple sclerosis, SJL mice were immunized to induce EAE by s.c. injection at the base of their spine with 200 μL of adjuvant containing 200 μg proteolipid proteins (139-151) (PLP peptide; Peptides International, Louisville, Ky.) and 400 μg of non-viable M. tuberculosis H37 desiccate emulsified in a mixture of incomplete Freund's adjuvant and PBS. Mice were also given 150 ng of pertussis toxin in PBS i.p. on the same day as PLP emulsion injection and 2 days later. […] Mice were scored using the scale described in Example 3.

The target in the next series is T2, FXR/RXR (Homo sapiens, UniProt P19793).
T2 construct: expressed in transfected cells; host or cells: CV-1
T2 sequence (P19793 1-462): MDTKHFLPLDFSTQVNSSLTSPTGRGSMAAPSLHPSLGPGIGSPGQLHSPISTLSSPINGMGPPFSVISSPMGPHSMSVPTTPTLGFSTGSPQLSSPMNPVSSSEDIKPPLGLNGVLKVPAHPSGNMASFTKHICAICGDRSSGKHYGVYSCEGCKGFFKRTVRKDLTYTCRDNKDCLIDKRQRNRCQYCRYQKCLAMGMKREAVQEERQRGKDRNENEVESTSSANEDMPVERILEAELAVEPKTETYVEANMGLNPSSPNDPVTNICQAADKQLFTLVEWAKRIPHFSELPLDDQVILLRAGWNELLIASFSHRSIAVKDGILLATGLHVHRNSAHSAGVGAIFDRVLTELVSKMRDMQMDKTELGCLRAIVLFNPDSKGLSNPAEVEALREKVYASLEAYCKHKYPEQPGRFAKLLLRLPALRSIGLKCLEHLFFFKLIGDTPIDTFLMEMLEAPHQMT
T2 sequence (Q96RI1 1-486 partner): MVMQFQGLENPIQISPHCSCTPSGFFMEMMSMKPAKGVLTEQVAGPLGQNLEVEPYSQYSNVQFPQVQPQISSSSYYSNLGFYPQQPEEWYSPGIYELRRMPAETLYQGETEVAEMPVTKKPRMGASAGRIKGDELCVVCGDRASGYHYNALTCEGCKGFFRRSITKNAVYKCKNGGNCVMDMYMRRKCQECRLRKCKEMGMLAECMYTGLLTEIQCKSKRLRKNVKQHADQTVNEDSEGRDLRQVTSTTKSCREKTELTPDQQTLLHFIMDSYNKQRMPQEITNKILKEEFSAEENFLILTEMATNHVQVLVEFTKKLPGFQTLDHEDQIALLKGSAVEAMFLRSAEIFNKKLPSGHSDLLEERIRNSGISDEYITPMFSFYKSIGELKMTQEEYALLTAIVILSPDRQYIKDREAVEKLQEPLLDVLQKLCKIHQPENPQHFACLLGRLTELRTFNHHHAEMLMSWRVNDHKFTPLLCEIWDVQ
Briefly: Permissive heterodimer transactivation assay in CV-1 cells. It is filed as cell-based. To be noted: 20 hr, relative to GW4064. An excerpt: (§1) For PPARγ: CV-1 cells were transfected with 3×(rAOX/DR1)-tk-Luc reporter gene and an expression vector for PPARγ. For FXR:CV-1 cells were transfected with 3×(IBABP/IRI)-tk-Luc reporter gene and vectors for FXR and RXRα. For LXR:CV-1 cells were transfected with 3×(PLTP/LXRE)-tk-Luc reporter gene with vectors for LXRα or LXRβ. For Nurr1: COS7 cells were transfected with 3×NBRE-tk-luc reporter gene and full length Nurr-1 with or without full-length RXRα plasmid. […] Luciferase data were normalized to co-transfected β-gal activity. Luciferase activity was expressed as percent of maximal activity obtained using specific agonists. Rosiglitazone (PPARγ), GW4064 (FXR), T0901317 (LXR).

A further series deals with LXRα/RXR. Described as above. The series is classed as cell-based. To be noted: 20 hr, relative to T0901317.
Text: as §1

A further series concerns LXRβ/RXR. Described as above. The series is classed as cell-based. To be noted: 20 hr, relative to T0901317.
Text: as §1

In the next series the target is Nurr1/RXR (Homo sapiens, UniProt P19793). Briefly: Permissive heterodimer transactivation assay in COS7 cells. The series is classed as cell-based.
Nurr1/RXR, sequence (P43354 whole entry partner, one chain of several): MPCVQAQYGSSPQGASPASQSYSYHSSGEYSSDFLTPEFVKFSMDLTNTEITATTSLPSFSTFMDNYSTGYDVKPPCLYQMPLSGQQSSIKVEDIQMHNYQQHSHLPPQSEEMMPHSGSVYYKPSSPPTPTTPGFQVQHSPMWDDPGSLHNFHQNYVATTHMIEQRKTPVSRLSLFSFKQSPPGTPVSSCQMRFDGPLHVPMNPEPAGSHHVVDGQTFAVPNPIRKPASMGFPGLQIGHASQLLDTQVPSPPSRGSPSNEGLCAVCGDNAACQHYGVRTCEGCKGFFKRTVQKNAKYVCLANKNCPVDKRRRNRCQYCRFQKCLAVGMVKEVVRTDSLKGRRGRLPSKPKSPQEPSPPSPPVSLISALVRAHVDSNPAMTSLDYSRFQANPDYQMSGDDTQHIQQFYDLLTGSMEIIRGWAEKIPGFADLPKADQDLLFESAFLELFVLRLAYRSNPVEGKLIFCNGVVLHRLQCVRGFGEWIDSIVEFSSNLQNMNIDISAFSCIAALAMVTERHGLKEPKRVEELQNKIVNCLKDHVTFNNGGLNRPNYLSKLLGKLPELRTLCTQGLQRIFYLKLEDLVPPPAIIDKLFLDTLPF
Text: as §1

The test system of series [1] is oligodendrocyte precursor cells (OPCs). Briefly: OPC differentiation into oligodendrocytes (PLP-EGFP). It is filed as cell-based, mouse.
Text: OPCs were generated from a neurosphere culture of E14.5 PLP-EGFP (on C57BL/6J background) mouse brains. […] The EGFP expressing cells were quantified with Cellomics Neuronal Profiling Algorithm.
The EGFP expressing cells in controls and all compounds were quantified with Cellomics Neuronal Profiling Algorithm.
In series [2] the test system is ethidium bromide induced demyelination of caudal cerebellar peduncles in rats. Briefly: Focal ethidium bromide induced demyelination, remyelination analysis. It is filed as in vivo, rat. How it is done: The experiment uses rats of relatively advanced age (1 year) since such rats undergo remyelination in a less efficient manner, thereby providing data that are more relevant to the clinical treatment of human patients with multiple sclerosis or other demyelination disorders.
Focal demyelination is induced in one year old rats (approximately 300 g in weight) by injecting stereotactically 5 μl of ethidium bromide solution (0.01% vol/vol in saline) in a bilateral manner into the caudal cerebellar peduncles (CCP). […] The rats are killed on day 24 post-ethidium bromide treatment for analysis of remyelination by quantitative polymerase chain reaction (qPCR) and microscopy. Serum T4 levels are determined before initiation of treatment and weekly thereafter and at study termination.

The subject of series [3] is cuprizone+rapamycin demyelination in C57BL/6J mice. Briefly: Cuprizone/rapamycin 12-week demyelination model, remyelination. The settings on record: 10 mg/kg PO daily for 6 weeks after 12 weeks CR. It is filed as in vivo, mouse. From the text:
All animals were sacrificed after 12 weeks of CR or after further 6 weeks of treatment to evaluate myelin in white matter (corpus callosum) and gray matter (hippocampus and cortex). In addition, the size of myelinated axons was quantified and the large myelinated axons were further assessed by 3D-electron microscopy (3D-EM). A total of 40 animals were included in the study, where all 40 animals received CR demyelination for 12 weeks. After demyelination, a subset (n=10) of animals are sacrificed to serve as controls to assess baseline demyelination. […] Floating brain sections are immunostained with myelin prolipid protein (PLP) to visualize and quantify myelin in gray matter, hippocampus (FIG. 16A) and cortex (FIG. 16B).

The test system is the same in series [4]. It is filed as in vivo. The settings on record: 6 weeks concurrent with CR.
Text: Animals (8 week-old male C57BL/6J mice) were subjected to cuprizone diet plus rapamycin injections (CR) for 6 weeks to induce demyelination. […] All animals were sacrificed after 6 weeks of CR to evaluate axonal integrity and microglial/macrophage activity in the white matter (corpus callosum, CC).
A total of 50 animals were included in the study, where 43 animals received CR demyelination for 6 weeks. During demyelination, a subset (n=7) of animals were kept on normal diet to serve as naïve age-matched controls.
Series [5] has as its system multiple sclerosis (MS) patients. Briefly: Placebo-controlled clinical trial of thyroid hormone neutral doses in relapsing-remitting MS. The settings on record: 30 to 180 days. The series is classed as in vivo, human. How it is done: Patients with relapsing-remitting MS are recruited to participate in the clinical trial and are provided informed consent describing risks and potential benefits of participation. […] Patients are dosed for a minimum of 30 days, and as long as 180 days. […] Serum T4 levels will continue to be determined on a weekly basis.
Patients are assessed for the status of myelin damage and speed of repair of demyelination in MS lesions that occur over this period of time in their brains, spinal cords, and/or optic nerves. Quantitation of myelin damage and repair is performed at baseline and periodically through the dosing, using specialized imaging methods, which specifically examine and quantitate myelin damage and repair in these parts of the nervous system. […] This compound is useful for useful for quantitating myelin repair. […] In addition to the quantitation of myelin damage and repair by imaging methods, the clinical status of the MS patients' disease progression is preliminarily evaluated using standard clinical endpoints for MS clinical trials, such as the Expanded Disability Status Scale (EDSS). The EDSS is a 10 point scale which quantitates the MS patients' levels of disability by evaluating physical activities of daily life, such as walking, swallowing, bowel and bladder function, etc.

RARα, sequence (P10276 183-417 limits assumed, species assumed): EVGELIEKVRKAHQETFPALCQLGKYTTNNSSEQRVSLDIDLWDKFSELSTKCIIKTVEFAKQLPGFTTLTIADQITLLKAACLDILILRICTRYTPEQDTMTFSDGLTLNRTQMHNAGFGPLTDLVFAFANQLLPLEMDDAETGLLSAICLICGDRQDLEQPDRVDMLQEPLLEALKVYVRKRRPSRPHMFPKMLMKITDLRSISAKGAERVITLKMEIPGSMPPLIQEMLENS
Experimental for RXRγ: To determine whether a RXR agonist can mediate its effects via RXRα receptor homodimers, RXRβ receptor homodimers, RXRγ receptor homodimers, or any combination thereof, or the corresponding RAR/RXR heterodimers, receptor-mediated transactivation assays were performed. For transactivation assays assessing RXR homodimer signaling, CV-1 cells were transfected with 1) an expression construct including a full length RXRα, RXRβ, or RXRγ; and 2) a rCRBPII/RXRE-tk-Luc reporter construct that included RXR homodimer-specific RXRE/DR1 responsive element linked to a luciferase gene. For transactivation assays assessing RAR/RXR heterodimer signaling, CV-1 cells were transfected with 1) an expression construct comprising a fusion protein including an estrogen receptor (ER) DNA binding domain linked to the ligand binding domain of RARα, RARβ, or RARγ and 2) a ERE-tk-Luc reporter construct that included an estrogen receptor responsive element linked to a luciferase gene. The ER-RAR fusion proteins provided an accurate readout of only the transfected ER-RAR. […] Data are mean values±SE from five independent experiments.

As to `CC(/C=C/[C@@H]1C[C@]1(C)c1ccc2c(c1)C(C)(C)CCC2(C)C)=C\C(=O)O` [IRX4204, 3,7-dimethyl-6(S),7(S)-methano,7-[1,1,4,4-tetramethyl-1,2,3,4-tetrahydronaphth-7-yl]2(E),4(E) heptadienoic acid], the “Efficacy (% of 1 μM IRX4204) RXRγ” value at RXRγ is on record as 0.09 ± 0.011 % of 1 μM IRX4204. The “activity detected at RARs” value at RARα is listed as “minimal activity”. The “co-expression of IFNγ and IL-17A by CD4 T cells in CNS” value with EAE in B6 mice is listed as “not significantly different”. In addition, in the series on EAE in B6 mice (spleen), the “CCR6 expression on CD4 T cells” value is on record as “lowered”; the “CD4+CD25hi cells (number)” value was “reduced”; the “CD4+CD25hi cells frequency” value is recorded as “not altered”; the “CD49d expression on CD4 T cells” value is “lowered CCR6, but not CD49d”. Further, the “total number of recently activated CD4 T cells (CD69 and CD44)” value with EAE in B6 mice (spleen) is recorded as “decreased”. Also, the “symptoms of EAE” value in the series on EAE in SJL mice is listed as “significantly reduces the symptoms of EAE”. In addition, at FXR/RXR, the “activation of FXR/RXR heterodimer” value is on record as “not to transactivate; also recorded: does not activate”. For the same compound, the “activation of LXRα/RXR heterodimer” value in the series with LXRα/RXR is “not to transactivate; also recorded: does not activate”. In the series on LXRβ/RXR, the “activation of LXRβ/RXR heterodimer” value was “not to transactivate; also recorded: does not activate”. Moreover, on Nurr1/RXR, the “activation of the Nurr1/RXR permissive heterodimer” value is recorded as “selectively activates”. The “total cell number and pyknotic cells compared to controls” value in [1] is “did not show any differences”. The “OPC differentiation into oligodendrocytes (EGFP positive cells) compared to negative control (DMSO)” value in [1] (all tested concentrations except the lowest concentration (1^−6 μM)) is given as “significant increase in OPC differentiation into oligodendrocytes; also recorded: dose dependent increase”. The “Mbp and Pdgfra expression (real-time qPCR of lesion samples)” value in series [2] was “increase in Mbp expression and an increase in Pdgfra expression”. Moreover, in series [2] (oral 1-10 mg/kg/day for fourteen days, relative to vehicle), the “densities of Olig2+ oligodendrocyte lineage cells and CC1+ differentiated oligodendrocytes in lesions” value is given as “increased”. Further, the “size of myelinated axons in the corpus callosum” value in [3] is reported as “significant increase”. Also, in series [4], the “levels of Iba1 staining (microglia/macrophages) in CC compared to vehicle” value was “no difference” and the “number of SMI32 stained axonal ovoids in CC compared to Vehicle” value is on record as “trend towards decreased number of axonal ovoids”. For the same compound, in series [5], the “clinical benefit (myelin imaging, EDSS, visual acuity) compared to placebo controls” value is listed as “Substantial clinical benefit”.
